Structures are written as SMILES.

This note sets out measurements from article PMC9249544, “Identification of Flavonoid C-Glycosides as Promising Antidiabetics Targeting Protein Tyrosine Phosphatase 1B” (Journal of Diabetes Research, 2022).

The assay concerns the target T1, Protein tyrosine phosphatase 1B (PTP1B) (Homo sapiens, UniProt P18031).
T1 construct: gene PTPN1
T1 sequence (P18031 1-435): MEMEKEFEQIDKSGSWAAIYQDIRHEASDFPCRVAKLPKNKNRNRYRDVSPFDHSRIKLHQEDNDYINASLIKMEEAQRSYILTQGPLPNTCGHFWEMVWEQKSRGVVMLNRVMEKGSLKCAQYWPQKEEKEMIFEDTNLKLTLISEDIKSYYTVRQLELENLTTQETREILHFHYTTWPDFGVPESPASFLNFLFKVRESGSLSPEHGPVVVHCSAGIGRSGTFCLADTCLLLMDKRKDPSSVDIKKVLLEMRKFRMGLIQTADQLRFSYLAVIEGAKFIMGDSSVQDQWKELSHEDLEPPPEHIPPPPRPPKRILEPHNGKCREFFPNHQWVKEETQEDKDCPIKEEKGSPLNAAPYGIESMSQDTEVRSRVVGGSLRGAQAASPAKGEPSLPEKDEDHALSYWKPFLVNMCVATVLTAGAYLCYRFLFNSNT
As to the kind of experiment: p-NPP hydrolysis assay with human recombinant PTP1B ([…] nm); Lineweaver-Burk kinetics. In kind it is biochemical.

As to `O=c1cc(-c2ccc(O)c(O)c2)oc2c([C@@H]3O[C@H](CO)[C@@H](O)[C@H](O)[C@H]3O)c(O)cc(O)c12` [orientin], the concentration for half-maximal inhibition (IC50) is 401 µM.
